In patent US11584747B2, “Substituted pyridopyrimidinonyl compounds useful as T cell activators” (BRISTOL-MYERS SQUIBB COMPANY, priority 2019, dated 2023) one finds IC50 and EC50 data, which are given here for 17 molecules.

Where two headings read alike, the source gives them in different places.

In assay [1] the target is T1, human DGKα (Homo sapiens (Human), UniProt P23743). Description: DGKα ADPGLO assay (detergent/lipid micelle substrate). It counts as biochemical. Conditions: truncated DGK alpha; read-out: DGK alpha ADPGLO (Truncated) IC50. How it is done: DGK Alpha ADPGLO (Truncated) IC50 (uM)
T1 sequence (P23743 whole entry, looked up, the tested form may be a part): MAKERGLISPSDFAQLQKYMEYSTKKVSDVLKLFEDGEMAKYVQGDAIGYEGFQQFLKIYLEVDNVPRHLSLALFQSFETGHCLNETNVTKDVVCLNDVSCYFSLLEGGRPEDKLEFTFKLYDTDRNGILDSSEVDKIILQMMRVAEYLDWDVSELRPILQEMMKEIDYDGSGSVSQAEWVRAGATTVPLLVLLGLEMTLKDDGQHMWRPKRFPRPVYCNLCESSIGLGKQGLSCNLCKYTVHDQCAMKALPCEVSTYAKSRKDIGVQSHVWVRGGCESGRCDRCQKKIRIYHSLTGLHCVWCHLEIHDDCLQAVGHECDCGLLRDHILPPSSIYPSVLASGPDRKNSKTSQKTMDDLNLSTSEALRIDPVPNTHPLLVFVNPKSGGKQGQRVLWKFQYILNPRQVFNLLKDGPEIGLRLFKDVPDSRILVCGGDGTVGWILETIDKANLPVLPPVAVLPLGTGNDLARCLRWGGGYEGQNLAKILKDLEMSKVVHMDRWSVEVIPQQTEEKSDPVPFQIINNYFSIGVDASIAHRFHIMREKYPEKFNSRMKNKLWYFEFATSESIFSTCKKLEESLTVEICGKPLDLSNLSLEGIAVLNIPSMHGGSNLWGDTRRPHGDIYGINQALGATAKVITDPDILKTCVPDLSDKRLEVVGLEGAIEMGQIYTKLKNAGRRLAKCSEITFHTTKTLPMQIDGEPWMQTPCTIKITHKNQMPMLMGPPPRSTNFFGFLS
The detergent/lipid micelle was prepared by combining 15 g phosphatidylserine (Avanti 840035P) and 1 g diacylglycerol (8008110) and dissolving into 150 mL chloroform in a 2 L round bottom flask. Chloroform was removed under high vacuum by rotary evaporation. […] The lipid/detergent solution was split into 5 mL aliquots and stored at −80° C.
In general terms: In ADP-Glo the light output rises with the ADP produced.

For assay [2], the target named is T1, human DGKα. Description: DGKα LIPGLO assay (extruded liposome substrate, ADP-Glo luminescence). The assay is classed as biochemical. Conditions: liposome assay; read-out: DGK alpha LIPGLO IC50.
Another assay concerns the target human DGKζ (Homo sapiens (Human), UniProt Q13574). Briefly: DGKζ LIPGLO assay (extruded liposome substrate, ADP-Glo luminescence). It counts as biochemical. Particulars: liposome assay; read-out: DGK zeta LIPGLO IC50.
The subject of assay [3] is human venous whole blood (IFN-γ). Briefly: Human whole blood IFN-γ assay. It counts as cell-based. Conditions: whole blood, normalized to 3 μM reference compound as 100% activation, read-out: IFN-γ Whole Blood Normalized EC50. How it is done:
Human venous whole blood (22.5 μL per well), obtained from healthy donors, was pre-treated with compounds for one hour at 37° C. in a humidified 95% air/5% CO2 incubator. The blood was stimulated with 2.5 μL anti-human CD3 and anti-CD28 mAb at a final concentration of 1 μg/mL each for 24 hours at 37° C. IFN-γ in the supernatants was measured using AlphLISA kit (Cat #AL217).

The subject of assay [4] is whole blood (pERK). Briefly: pERK Whole Blood assay (Table A; no whole-blood pERK method described). Conditions: normalized. The assay is classed as cell-based.
For assay [5], the system named is whole blood (pERK). Briefly: pERK Whole Blood. It counts as cell-based.

Chain of human DGKζ (Q13574 other isoform, or with tags, fused parts or gaps): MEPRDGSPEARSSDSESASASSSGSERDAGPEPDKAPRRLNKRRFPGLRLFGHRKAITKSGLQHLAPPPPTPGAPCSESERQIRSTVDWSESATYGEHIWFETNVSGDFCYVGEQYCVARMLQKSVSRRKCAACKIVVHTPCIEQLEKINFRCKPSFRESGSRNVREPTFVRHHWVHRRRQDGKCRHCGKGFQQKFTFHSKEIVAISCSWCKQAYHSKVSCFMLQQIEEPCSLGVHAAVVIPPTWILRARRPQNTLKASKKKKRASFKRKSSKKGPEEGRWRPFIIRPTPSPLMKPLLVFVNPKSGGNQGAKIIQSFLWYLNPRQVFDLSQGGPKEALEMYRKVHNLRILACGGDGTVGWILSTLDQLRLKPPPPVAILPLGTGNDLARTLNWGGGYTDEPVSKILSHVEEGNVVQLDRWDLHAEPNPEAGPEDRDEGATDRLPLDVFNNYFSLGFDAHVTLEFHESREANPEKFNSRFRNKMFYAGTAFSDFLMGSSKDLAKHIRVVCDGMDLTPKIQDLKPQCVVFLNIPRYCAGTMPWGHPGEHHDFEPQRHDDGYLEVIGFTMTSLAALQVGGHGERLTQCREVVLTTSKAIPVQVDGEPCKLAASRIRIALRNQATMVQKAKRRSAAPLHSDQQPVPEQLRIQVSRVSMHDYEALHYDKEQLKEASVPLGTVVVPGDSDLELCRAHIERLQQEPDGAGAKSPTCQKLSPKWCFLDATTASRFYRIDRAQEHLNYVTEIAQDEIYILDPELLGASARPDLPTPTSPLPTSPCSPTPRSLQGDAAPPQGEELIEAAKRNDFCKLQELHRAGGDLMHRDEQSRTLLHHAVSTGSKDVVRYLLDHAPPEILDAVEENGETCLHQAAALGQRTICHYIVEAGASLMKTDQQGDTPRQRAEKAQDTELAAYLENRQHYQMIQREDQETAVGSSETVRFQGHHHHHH

On to `CC[C@@H]1CN(c2nc(=O)n(C)c3ccc(C#N)nc23)[C@@H](C)CN1C(c1ccc(OC(F)(F)F)cc1)c1ccccn1` (single isomer, unassigned) [Example 94], for which the half-inhibitory concentration (IC50) at human DGKα [1] was found to be 16 nM; on human DGKα [2], 200 nM; on human DGKζ it was 86 nM; in the assay with whole blood (pERK) [4] it was 220 nM. For the same molecule, the EC50 in assay [3] was 43 nM.

On to `CCC(c1ccc(OC(F)(F)F)cc1)N1C[C@H](C)N(c2nc(=O)n(C)c3ccc(C#N)nc23)C[C@H]1CC` (single isomer, unassigned) [Example 83], for which the IC50 on human DGKα [1] was determined as 15 nM; on human DGKα [2], 97 nM; on human DGKζ, 160 nM; in the assay with whole blood (pERK) [4], 87 nM. Besides, the EC50 in assay [3] worked out at 17 nM.

On to `CCC(c1ccc(OC(F)(F)F)cc1F)N1C[C@H](C)N(c2nc(=O)n(C)c3ccc(C#N)nc23)C[C@H]1CC` (single isomer, unassigned) [Example 85], for which the IC50 on human DGKα [1] was 66 nM; at human DGKα [2], 210 nM; at human DGKζ, 91 nM; with whole blood (pERK) [4], 66 nM. Besides, in assay [3], the EC50 turned out to be 22 nM.

Consider `CCC(c1ccc(C(F)(F)F)cc1)N1C[C@H](C)N(c2nc(=O)n(C)c3ccc(C#N)nc23)C[C@H]1CC` (single isomer, unassigned) [Example 89], for which the IC50 on human DGKα [1] was found to be 60 nM; at human DGKα [2] it was 55 nM; at human DGKζ, 110 nM; in the assay with whole blood (pERK) [4], 260 nM. Besides, in assay [3] (Homo sapiens), the EC50 turned out to be 35 nM.

The molecule `CC[C@@H]1CN(c2nc(=O)n(C)c3ccc(C#N)nc23)[C@@H](C)CN1C(C)c1ccc(C2(C#N)CC2)cc1` (stereo partly drawn) [Example 326, 4-((2S,5R)-4-(1-(4-(1-cyanocyclopropyl)phenyl)ethyl)-5-ethyl-2-methylpiperazin-1-yl)-1-methyl-2-oxo-1,2-dihydropyrido[3,2-d]pyrimidine-6-carbonitrile] showed an EC50 in the assay on whole blood (pERK) [5] of 3480 nM.

On to `CCC(c1ccc(OC(F)(F)F)cc1)N1C[C@H](C)N(c2nc(=O)n(C)c3ccc(C#N)nc23)C[C@H]1CC` (single isomer, unassigned) [Example 84], for which the IC50 at human DGKα [1] is 54 nM; on human DGKα [2], 3220 nM; at human DGKζ it was 2090 nM; in the assay on whole blood (pERK) [4] it was 780 nM. Moreover, the EC50 in assay [3] is 670 nM.

For the molecule `CC[C@@H]1CN(c2nc(=O)n(C)c3ccc(C#N)nc23)[C@@H](C)CN1C(c1ccc(F)cc1)c1nc(C2CC2)no1` (stereo partly drawn) [Example 112, 4-((2S,5R)-4-((3-cyclopropyl-1,2,4-oxadiazol-5-yl)(4-fluorophenyl)methyl)-5-ethyl-2-methylpiperazin-1-yl)-1-methyl-2-oxo-1,2-dihydropyrido[3,2-d]pyrimidine-6-carbonitrile], the IC50 stood at 11 nM at human DGKα [1], 43 nM on human DGKα [2], 22 nM at human DGKζ and 15 nM in the assay on whole blood (pERK) [4]. Moreover, the EC50 in assay [3] turned out to be 11 nM.

In the assay with whole blood (pERK) [5], `CC[C@H]1CN(C(C)c2ccc(C(F)(F)F)cc2)[C@H](CC)CN1c1nc(=O)n(C)c2ccc(OCCOC)nc12` (stereo partly drawn) [Example 434, 4-((2S,5R)-2,5-diethyl-4-(1-(4-(trifluoromethyl)phenyl)ethyl)piperazin-1-yl)-6-(2-methoxyethoxy)-1-methylpyrido[3,2-d]pyrimidin-2(1H)-one] showed a concentration for a half-maximal effect (EC50) of 20000 nM.

`CCC(c1ccc(OC(F)(F)F)cc1)N1C[C@H](CC)N(c2nc(=O)n(C)c3ccc(C#N)nc23)C[C@H]1CC` (single isomer, unassigned) [Example 36]: the IC50 was 190 nM on human DGKα [1], 16 nM on human DGKα [2], 75 nM at human DGKζ and 250 nM in the assay on whole blood (pERK) [4]. For the same molecule, the half-maximal effective concentration (EC50) in assay [3] was determined as 82 nM.

`C[C@@H]1CN(c2nc(=O)n(C)c3ccc(C#N)nc23)[C@@H](C)CN1C(c1ccc(F)cc1)C12CC(C(F)(F)F)(C1)C2` (stereo partly drawn) [Example 452, 4-((2S,5R)-4-((4-fluorophenyl)(3-(trifluoromethyl)bicyclo[1.1.1]pentan-1-yl)methyl)-2,5-dimethylpiperazin-1-yl)-1-methyl-2-oxo-1,2-dihydropyrido[3,2-d]pyrimidine-6-carbonitrile] came in with an EC50 in the assay with whole blood (pERK) [5] of 20000 nM.

With `CC[C@@H]1CN(c2nc(=O)n(C)c3ccc(C#N)nc23)[C@@H](C)CN1C(c1ccc(OC(F)(F)F)cc1)c1cc(C2CC2)on1` (stereo partly drawn) [Example 99, 4-((2S,5R)-4-((5-cyclopropylisoxazol-3-yl)(4-(trifluoromethoxy)phenyl)methyl)-5-ethyl-2-methylpiperazin-1-yl)-1-methyl-2-oxo-1,2-dihydropyrido[3,2-d]pyrimidine-6-carbonitrile], the 50% inhibitory concentration (IC50) on human DGKα [1] was determined as 4 nM; on human DGKα [2], 130 nM; at human DGKζ it was 120 nM; in the assay on whole blood (pERK) [4] it was 140 nM. Further, the EC50 in assay [3] (Homo sapiens) was found to be 120 nM.

Turning to `CC[C@@H]1CN(c2nc(=O)n(C)c3ccc(C#N)nc23)[C@@H](C)CN1C(c1ccc(F)cc1)c1ccc(C(F)(F)F)nc1` (single isomer, unassigned) [Example 97], the IC50 worked out at 210 nM at human DGKα [1], 630 nM on human DGKα [2], 45 nM at human DGKζ and 380 nM in the assay with whole blood (pERK) [4]. Besides, the EC50 in assay [3] (Homo sapiens) worked out at 99 nM.

As for `CC[C@@H]1CN(c2nc(=O)n(C)c3ccc(C#N)nc23)[C@@H](C)CN1C(c1ccc(OC(F)(F)F)cc1)c1cc(C2CC2)on1` (single isomer, unassigned) [Example 100], the IC50 at human DGKα [1] worked out at 11 nM; on human DGKα [2], 250 nM; at human DGKζ, 110 nM; in the assay on whole blood (pERK) [4], 320 nM. Besides, in assay [3] (Homo sapiens), the EC50 worked out at 44 nM.

On to `CC[C@H]1CN(C(c2ccc(OC(F)(F)F)cc2)c2cc(C3CC3)on2)[C@H](CC)CN1c1nc(=O)n(C)c2ccc(C#N)nc12` (single isomer, unassigned) [Example 43], for which the 50% inhibitory concentration (IC50) is 82 nM at human DGKα [1], 22 nM on human DGKα [2], 130 nM on human DGKζ and 340 nM with whole blood (pERK) [4]. Besides, in assay [3], the EC50 came out at 120 nM.

For the molecule `CC[C@H]1CN(C(c2ccc(OC(F)(F)F)cc2)c2cc(C3CC3)on2)[C@H](CC)CN1c1nc(=O)n(C)c2ccc(C#N)nc12` (single isomer, unassigned) [Example 42], the IC50 on human DGKα [1] is 7 nM; on human DGKα [2] it was 78 nM; on human DGKζ, 110 nM; in the assay with whole blood (pERK) [4] it was 350 nM. Also, the EC50 in assay [3] (Homo sapiens) was 81 nM.

With `CC[C@@H]1CN(c2nc(=O)n(C)c3ccc(C#N)nc23)[C@@H](C)CN1C(c1ccc(F)cc1)c1nc(C2CC2)no1` (stereo partly drawn) [Example 113, 4-((2S,5R)-4-((3-cyclopropyl-1,2,4-oxadiazol-5-yl)(4-fluorophenyl)methyl)-5-ethyl-2-methylpiperazin-1-yl)-1-methyl-2-oxo-1,2-dihydropyrido[3,2-d]pyrimidine-6-carbonitrile], the IC50 on human DGKα [1] was found to be 10 nM; on human DGKα [2], 47 nM; on human DGKζ it was 46 nM; in the assay on whole blood (pERK) [4] it was 170 nM. The EC50 in assay [3] stood at 57 nM.

On to `CC[C@H]1CN(C(c2ccc(F)cc2)c2nc(C3CC3)nn2C)[C@H](CC)CN1c1nc(=O)n(C)c2ccc(C#N)nc12` (single isomer, unassigned) [Example 295], for which the IC50 at human DGKα [1] is 100 nM; on human DGKα [2], 7230 nM; on human DGKζ, 820 nM; with whole blood (pERK) [4] it was 100 nM. Moreover, the EC50 in assay [3] was 580 nM.

For orientation: IC50 means the point on the concentration scale where inhibition reaches its midpoint. One may read the EC50 as the midpoint of the concentration-response curve.
